Numbered stars: 1 amine (or outer) side, 2 acyl side, 3 side chain; on linkers, the order of the positions; unused ones are H or OH. Square brackets hold non-standard residues; d marks the D form. Peptide text beside a SMILES is read from it. * marks the point of attachment. dPhe(4-Cl) = N[C@H](Cc1ccc(Cl)cc1)C(=O)O; NH(2-(2-pyridyl)ethyl) = c1ccc(CCN*)nc1; NH(2-morpholinoethyl) = C(CN1CCOCC1)N*; d2Nal = N[C@H](Cc1ccc2ccccc2c1)C(=O)O; NMeY = CN[C@@H](Cc1ccc(O)cc1)C(=O)O; NHCH2(2-pyridyl) = c1ccc(CN*)nc1; Piperazinyl(4-Me) = CN1CCN(*)CC1; dCit = NC(=O)NCCC[C@@H](N)C(=O)O; d3Pal = N[C@H](Cc1cccnc1)C(=O)O; NH(3-picolyl) = c1cncc(CN*)c1; CO = O=C([*:1])[*:2]

The assay addresses T1, LHRH (Rattus norvegicus, UniProt P30969).
T1 construct: evaluated in an in vitro test for LHRH antagonist potency (pA2); endogenous in cells; host or cells: pituitary cells (rat, from my own knowledge of the cited method)
T1 sequence (P30969 1-327): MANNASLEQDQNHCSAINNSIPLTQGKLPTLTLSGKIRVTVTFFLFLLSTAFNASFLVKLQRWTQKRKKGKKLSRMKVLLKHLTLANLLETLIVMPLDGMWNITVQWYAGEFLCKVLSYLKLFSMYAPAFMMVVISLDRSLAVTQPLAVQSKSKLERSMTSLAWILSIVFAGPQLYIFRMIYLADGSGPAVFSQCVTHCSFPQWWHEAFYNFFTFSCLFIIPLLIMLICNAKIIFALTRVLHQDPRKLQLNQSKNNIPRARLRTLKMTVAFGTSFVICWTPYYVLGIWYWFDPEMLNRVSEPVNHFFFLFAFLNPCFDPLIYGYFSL
Kind of assay: in vitro test for LHRH antagonist potency (pA2). The format is cell-based. As to conditions: negative logarithm of the antagonist concentration required to shift the response curve produced by the agonist leuprolide to two-fold higher concentration. Here is the method:
Representative compounds of the present invention were evaluated in an in vitro test for LHRH antagonist potency (pA2). The test employed the method detailed in F. Haviv, et al. J. Med. Chem., 32:2340-2344 (1989). The values of pA2 are the negative logarithms of the concentration of the particular antagonist test compound required to shift the response curve produced by the agonist leuprolide to two-fold higher concentration. (Leuprolide is the LHRH agonist having the structure 5-oxo-Pro^1 -His^2 -Trp^3 -Ser^4 -Tyr^5 -D-Leu^6 -Leu^7 -Arg^8 -Pro^9 -NHEt and is disclosed and claimed in U.S. Pat. No. 4,005,063.) Typically pA2 values of 9.5 or greater are indicative of good LHRH antagonist potency, with values of 10.0 or greater being preferred.
As for `CC(C)C[C@H](NC(=O)[C@@H](CCCNC(N)=O)NC(=O)[C@H](Cc1ccc(O)cc1)N(C)C(=O)[C@H](CO)NC(=O)[C@@H](Cc1cccnc1)NC(=O)[C@@H](Cc1ccc(Cl)cc1)NC(=O)[C@@H](Cc1ccc2ccccc2c1)NC(=O)NCCN1CCOCC1)C(=O)N[C@@H](CCCNC(=N)N)C(=O)N1CCC[C@H]1C(=O)N[C@H](C)C(N)=O` [Example 8c, N-(Morpholinoethylaminocarbonyl)-D2Nal-D4ClPhe-D3Pal-Ser-NMeTyr-DCit-Leu-Arg-Pro-DAlaNH2] ({NH(2-morpholinoethyl)-CO}-[d2Nal][dPhe(4-Cl)][d3Pal]S[NMeY][dCit]LRP[dA]-NH2), the Kb (in general, the equilibrium dissociation constant of an antagonist, usually derived from a functional assay) is 0.049 nM.

Turning to `CC(C)C[C@H](NC(=O)[C@@H](CCCNC(N)=O)NC(=O)[C@H](Cc1ccc(O)cc1)N(C)C(=O)[C@H](CO)NC(=O)[C@@H](Cc1cccnc1)NC(=O)[C@@H](Cc1ccc(Cl)cc1)NC(=O)[C@@H](Cc1ccc2ccccc2c1)NC(=O)N1CCN(C)CC1)C(=O)N[C@@H](CCCNC(=N)N)C(=O)N1CCC[C@H]1C(=O)N[C@H](C)C(N)=O` [Example 8d, N-(N'-Methylpiperazinylcarbonyl)-D2Nal-D4ClPhe-D3Pal-Ser-NMeTyr-DCit-Leu-Arg-Pro-DAlaNH2] ({Piperazinyl(4-Me)-CO}-[d2Nal][dPhe(4-Cl)][d3Pal]S[NMeY][dCit]LRP[dA]-NH2), the Kb was 0.0398 nM.

On to `CC(C)C[C@H](NC(=O)[C@@H](CCCNC(N)=O)NC(=O)[C@H](Cc1ccc(O)cc1)N(C)C(=O)[C@H](CO)NC(=O)[C@@H](Cc1cccnc1)NC(=O)[C@@H](Cc1ccc(Cl)cc1)NC(=O)[C@@H](Cc1ccc2ccccc2c1)NC(=O)NCc1ccccn1)C(=O)N[C@@H](CCCNC(=N)N)C(=O)N1CCC[C@H]1C(=O)N[C@H](C)C(N)=O` [Example 8e, N-(2-Pyridyhnethylaminocarbonyl)-D2Nal-D4ClPhe-D3Pal- Ser-NMeTyr-DCit-Leu-Arg-Pro-DAlaNH2] ({NHCH2(2-pyridyl)-CO}-[d2Nal][dPhe(4-Cl)][d3Pal]S[NMeY][dCit]LRP[dA]-NH2), for which the Kb is 0.00676 nM.

Consider `CC(C)C[C@H](NC(=O)[C@@H](CCCNC(N)=O)NC(=O)[C@H](Cc1ccc(O)cc1)N(C)C(=O)[C@H](CO)NC(=O)[C@@H](Cc1cccnc1)NC(=O)[C@@H](Cc1ccc(Cl)cc1)NC(=O)[C@@H](Cc1ccc2ccccc2c1)NC(=O)NCc1cccnc1)C(=O)N[C@@H](CCCNC(=N)N)C(=O)N1CCC[C@H]1C(=O)N[C@H](C)C(N)=O` [Example 8f, N-(3-Pyridyhnethylaminocarbonyl)-D2Nal-D4ClPhe-D3Pal-Ser-NMeTyr-DCit-Leu-Arg-Pro-DAlaNH2] ({NH(3-picolyl)-CO}-[d2Nal][dPhe(4-Cl)][d3Pal]S[NMeY][dCit]LRP[dA]-NH2), for which the Kb is 0.0363 nM.

Regarding `CC(C)C[C@H](NC(=O)[C@@H](CCCNC(N)=O)NC(=O)[C@H](Cc1ccc(O)cc1)N(C)C(=O)[C@H](CO)NC(=O)[C@@H](Cc1cccnc1)NC(=O)[C@@H](Cc1ccc(Cl)cc1)NC(=O)[C@@H](Cc1ccc2ccccc2c1)NC(=O)NCCc1ccccn1)C(=O)N[C@@H](CCCNC(=N)N)C(=O)N1CCC[C@H]1C(=O)N[C@H](C)C(N)=O` [Example 8g, N-(2-Pyridylethylaminocarbonyl)-D2Nal-D4ClPhe-D3Pal-Ser-NMeTyr-DCit-Leu-Arg-Pro-DAlaNH2] ({NH(2-(2-pyridyl)ethyl)-CO}-[d2Nal][dPhe(4-Cl)][d3Pal]S[NMeY][dCit]LRP[dA]-NH2), the Kb is 0.0178 nM.

The values are drawn from US5413990A, “N-terminus modified analogs of LHRH” (Tap Pharmaceuticals Inc., priority 1993, dated 1995).
